Measurements reported in ChEMBL document CHEMBL5375981, “Enhanced Tumor Targeting and Penetration of Proteolysis-Targeting Chimeras through iRGD Peptide Conjugation: A Strategy for Precise Protein Degradation in Breast Cancer” (J Med Chem, 2023).
Calls of active or inactive are those of the source. The calls are words filed in the database; no cut-off is given here.

Key:
MDA-MB-231 [1] = assay: Antitumor activity against human MDA-MB-231 cells xenografted in BALB/C nude mouse assessed as induction of apoptosis in tumor cells at 5 to 8 uM, iv administered every other day and measured after 21 days by immunohistochemistry; format: functional, organism-based; conditions: dose 5-8 µM, time 21.0 day
[2] = Toxicity in BALB/C mouse xenografted with human MDA-MB-231 cells assessed as heart damage at 5 to 8 uM, iv administered every other day for 21 days and measured 37 days post treatment by H and E staining based assay; format: organism-based; conditions: in vivo, 1392 h, dose 5-8 µM, time 58 day
MDA-MB-231 [3] = assay: Antitumor activity against human MDA-MB-231 cells xenografted in BALB/C nude mouse assessed as inhibition of cell proliferation by measuring reduction in number of Ki67-stained cells at 5 to 8 uM, iv administered every other day and measured after 21 days by immunohistochemistry; format: functional, organism-based; conditions: dose 5-8 µM, time 21.0 day
[4] = Toxicity in BALB/C mouse xenografted with human MDA-MB-231 cells assessed as effect on liver weight at 5 to 8 uM, iv administered every other day for 21 days; format: organism-based; conditions: in vivo, 504 h, dose 5-8 µM, time 21 day
L02 = assay: Antiproliferative activity against human L02 cells harboring minimal integrin alphaVbeta3 expression assessed as inhibition of cell growth incubated for 72 hrs by CCK-8 assay; format: functional, cell-based; conditions: L02, 72 h
MCF7 = assay: Antiproliferative activity against human MCF7 cells harboring low integrin alphaVbeta3 expression assessed as inhibition of cell growth incubated for 72 hrs by CCK-8 assay; format: functional, cell-based; conditions: MCF7, 72 h
[5] = Stability of compound in PBS containing 5% serum at 50 uM measured after 72 hrs by LC-MS analysis; format: physicochemical, cell-free; conditions: read-out: Stability
[6] = molecular target: Bromodomain-containing protein 4 (Homo sapiens) (UniProt O60885); assay: (§1) Induction of BRD4 degradation in human MDA-MB-231 cells harboring high integrin alphaVbeta3 expression assessed as reduction in BRD4 levels at 500 nM incubated for 12 hrs by immunofluorescence staining based confocal microscopic analysis; format: cell-based
MDA-MB-231 [7] = assay: Antitumor activity against human MDA-MB-231 cells xenografted in BALB/C nude mouse assessed as tumor growth inhibition at 5 uM, iv administered every other day and measured after 21 days by vernier caliper method relative to control; format: functional; conditions: MDA-MB-231, 504 h, time 21 day, read-out: TGI
[8] = Toxicity in BALB/C mouse xenografted with human MDA-MB-231 cells assessed as effect on spleen weight at 5 to 8 uM, iv administered every other day for 21 days; format: organism-based; conditions: in vivo, 504 h, dose 5-8 µM, time 21 day
[9] = molecular target: Bromodomain-containing protein 4 (Homo sapiens) (UniProt O60885); assay: as §1, with “pretreated with NRP-1 inhibitor EG00229” for “incubated”, “for 2 hrs followed by compound addition and measured after” for “for”; format: cell-based
[10] = Toxicity in BALB/C mouse xenografted with human MDA-MB-231 cells assessed as adverse reactions at 5 to 8 uM, iv administered for 21 days and measured every 3 days; format: organism-based; conditions: in vivo, 504 h, dose 5-8 µM, time 21 day
[11] = molecular target: Bromodomain-containing protein 4 (Homo sapiens) (UniProt O60885); assay: Induction of BRD4 degradation in human MDA-MB-231 cells harboring high integrin alphaVbeta3 expression at 0.1 to 1 uM incubated for 24 hrs by Western blot analysis; format: cell-based; conditions: dose 0.1-1 µM
[12] = molecular target: Bromodomain-containing protein 4 (Homo sapiens) (UniProt O60885); assay: Induction of BRD4 degradation in human L02 cells lacking integrin alphaVbeta3 expression at 300 nM incubated for 12 hrs by immunofluorescence staining based confocal microscopic analysis; format: cell-based
Homo sapiens [13] = species on record: Homo sapiens; assay: Antitumor activity against patient-derived Breast cancer organoid assessed as increase in number of apoptotic cells by measuring increase in red fluorescence at 0.5 to 1 uM incubated for approximately 3 to 5 days by acridine orange/ethidium bromide double staining ssay; format: functional, cell-based; conditions: dose 0.5-1 µM, time 3-5 day
MDA-MB-231 [14] = assay: Antiproliferative activity against human MDA-MB-231 cells harboring high integrin alphaVbeta3 expression assessed as inhibition of cell growth incubated for 72 hrs by CCK-8 assay; format: functional, cell-based; conditions: MDA-MB-231, 72 h
[15] = Toxicity in BALB/C mouse xenografted with human MDA-MB-231 cells assessed as lung damage at 5 to 8 uM, iv administered every other day for 21 days and measured 37 days post treatment by H and E staining based assay; format: organism-based; conditions: in vivo, 1392 h, dose 5-8 µM, time 58 day
Homo sapiens [16] = species on record: Homo sapiens; assay: Antitumor activity against patient-derived Breast cancer organoid assessed as reduction in number of proliferating cells by measuring reduction in red fluorescence at 0.5 uM incubated for approximately 3 days by Edu incorporation assay; format: functional, tissue-based; conditions: time 3.0 day
Mus musculus = assay: In vivo induction of BRD4 degradation in BALB/C mouse xenografted with human MDA-MB-231 cells assessed as reduction in BRD4 level in tumor at 5 to 8 uM, iv administered every other day and measured after 21 days by immunohistochemistry analysis; format: functional, organism-based; conditions: dose 5-8 µM, time 21.0 day
[17] = Antitumor activity against patient-derived Breast cancer organoid assessed as inhibition of cell growth incubated for approximately 3 to 5 days by CCK-8 assay; format: functional, tissue-based; conditions: Homo sapiens
[18] = molecular target: Bromodomain-containing protein 4 (Homo sapiens) (UniProt O60885); assay: Induction of BRD4 degradation in human MDA-MB-231 cells harboring high integrin alphaVbeta3 expression at 300 nM incubated for 16 to 20 hrs by Western blot analysis; format: cell-based; conditions: time 16-20 hrs
[19] = molecular target: Bromodomain-containing protein 4 (Homo sapiens) (UniProt O60885); assay: Induction of BRD4 degradation in human MCF7 cells harboring low integrin alphaVbeta3 expression at 300 nM incubated for 12 hrs by immunofluorescence staining based confocal microscopic analysis; format: cell-based
[20] = Toxicity in BALB/C mouse xenografted with human MDA-MB-231 cells assessed as effect on heart weight at 5 to 8 uM, iv administered every other day for 21 days; format: organism-based; conditions: in vivo, 504 h, dose 5-8 µM, time 21 day
MDA-MB-231 [21] = assay: Antitumor activity against human MDA-MB-231 cells xenografted in BALB/C nude mouse assessed as appearance of collapsed extravascular tumor tissue at 5 uM, iv administered every other day and measured after 21 days by H and E staining based assay; format: functional, organism-based; conditions: time 21.0 day
[22] = Toxicity in BALB/C mouse xenografted with human MDA-MB-231 cells assessed as effect on lung weight at 5 to 8 uM, iv administered every other day for 21 days; format: organism-based; conditions: in vivo, 504 h, dose 5-8 µM, time 21 day
Homo sapiens [23] = species on record: Homo sapiens; assay: Antitumor activity against patient-derived Breast cancer organoid assessed as increase in number of apoptotic cells by measuring reduction in green fluorescence at 0.5 to 1 uM incubated for approximately 3 to 5 days by acridine orange/ethidium bromide double staining ssay; format: functional, cell-based; conditions: dose 0.5-1 µM, time 3-5 day
MDA-MB-231 [24] = assay: Antimigratory activity against human MDA-MB-231 cells harboring high integrin alphaVbeta3 expression assessed as inhibition of cell migration incubated for 48 hrs by crystal violet staining based transwell assay; format: functional; conditions: dose 200-300 nM
[25] = Toxicity in BALB/C mouse xenografted with human MDA-MB-231 cells assessed as effect on kidney weight at 5 to 8 uM, iv administered every other day for 21 days; format: organism-based; conditions: in vivo, 504 h, dose 5-8 µM, time 21 day
MDA-MB-231 [26] = assay: Antitumor activity against human MDA-MB-231 cells xenografted in BALB/C nude mouse assessed as tumor growth inhibition at 8 uM, iv administered every other day and measured after 21 days by vernier caliper method relative to control; format: functional; conditions: MDA-MB-231, 504 h, time 21 day, read-out: TGI
[27] = Toxicity in BALB/C mouse xenografted with human MDA-MB-231 cells assessed as spleen damage at 5 to 8 uM, iv administered every other day for 21 days and measured 37 days post treatment by H and E staining based assay; format: organism-based; conditions: in vivo, 1392 h, dose 5-8 µM, time 58 day
[28] = Toxicity in BALB/C mouse xenografted with human MDA-MB-231 cells assessed as liver damage at 5 to 8 uM, iv administered every other day for 21 days and measured 37 days post treatment by H and E staining based assay; format: organism-based; conditions: in vivo, 1392 h, dose 5-8 µM, time 58 day

For `Cc1ncsc1-c1ccc([C@H](C)NC(=O)[C@@H]2C[C@@H](OC(=O)OCCSSCCOC(=O)CCC(=O)NCCCC[C@@H]3NC(=O)[C@H](CC(=O)O)NC(=O)CNC(=O)[C@H](CCCNC(=N)N)NC(=O)[C@@H](N)CSSC[C@@H](C(=O)O)NC(=O)[C@H](CC(=O)O)NC(=O)[C@@H]4CCCN4C(=O)CNC3=O)CN2C(=O)[C@@H](NC(=O)COCCOCCOCCNC(=O)C[C@@H]2N=C(c3ccc(Cl)cc3)c3c(sc(C)c3C)-n3c(C)nnc32)C(C)(C)C)cc1`, the Activity (MDA-MB-231 [1]) was “Active”, the Activity [2] was “Non-Toxic” and the Activity (MDA-MB-231 [3]) was “Active”. The Activity [4] was “Non-Toxic”, the IC50 (L02) was 1500 nM and the IC50 (MCF7) was 260 nM. For the same molecule, the remaining at 72 h, 50 µM [5] was 89.9%, the Activity [6] was “Active” and the inhibition in vivo at 5 µM (MDA-MB-231 [7]) was 62.3%. The Activity [8] was “Non-Toxic”, the Activity [9] was “inactive” and the Activity [10] was “Non-Toxic”. For the same molecule, the Activity [11] was “Active”, the Activity [12] was “inactive” and the Activity (Homo sapiens [13]) was “Active”. The IC50 (MDA-MB-231 [14]) was 88 nM, the Activity [15] was “Non-Toxic” and the Activity (Homo sapiens [16]) was “Active”. For the same molecule, the Activity (Mus musculus) was “Active”, the IC50 [17] was 950 nM and the Activity [18] was “Active”. The Activity [19] was “inactive”, the Activity [20] was “Non-Toxic” and the Activity (MDA-MB-231 [21]) was “Active”. For the same molecule, the Activity [22] was “Non-Toxic”, the Activity (Homo sapiens [23]) was “Active” and the Activity (MDA-MB-231 [24]) was “Dose-Dependent Effect”. For the same molecule, the Activity [25] was “Non-Toxic”, the inhibition in vivo at 8 µM (MDA-MB-231 [26]) was 81.5% and the Activity [27] was “Non-Toxic”. For the same molecule, the Activity [28] was “Non-Toxic”.
